# Data reported in US7138361B2, “Herbicidal heterocycles” (E. I. du Pont de Nemours and Company, priority 2000, dated 2006).
# Tests used:
# Assay type in all cases: in vivo
# [1] = system: Surinam grass (Brachiaria decumbens); assay: Test B postemergence
# Summary of the method: (§1)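 Preemergence: seeds planted and treated with test chemicals in non-phytotoxic solvent with surfactant; postemergence on plants 2–18 cm (1- to 4-leaf stage). Kept in greenhouse 13–15 days, then visually rated against controls on a 0 (no effect) to 100 (complete control) scale.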
# [2] = system: barnyardgrass (Echinochloa crus-galli); assay: Test B postemergence
# Summary of the method: as §1
# [3] = system: blackgrass (Alopecurus myosuroides); assay: Test B postemergence
# Summary of the method: as §1
# [4] = system: cocklebur (Xanthium strumarium); assay: Test B postemergence
# Summary of the method: as §1
# [5] = system: corn (Zea mays); assay: Test B postemergence
# Summary of the method: as §1
# [6] = system: crabgrass (Digitaria sanguinalis); assay: Test B postemergence
# Summary of the method: as §1
# [7] = system: giant foxtail (Setaria faberii); assay: Test B postemergence
# Summary of the method: as §1
# [8] = system: lambsquarters (Chenopodium album); assay: Test B postemergence
# Summary of the method: as §1
# [9] = system: morning glory (Ipomoea hederacea); assay: Test B postemergence
# Summary of the method: as §1
# [10] = system: pigweed (Amaranthus retroflexus); assay: Test B postemergence
# Summary of the method: as §1
# [11] = system: velvetleaf (Abutilon theophrasti); assay: Test B postemergence
# Summary of the method: as §1
# [12] = system: wheat (Triticum aestivum); assay: Test B postemergence
# Summary of the method: as §1
# [13] = system: wild oat (Avena fatua); assay: Test B postemergence
# Summary of the method: as §1
# [14] = system: Surinam grass (Brachiaria decumbens); assay: Test B preemergence
# Summary of the method: as §1
# [15] = system: barnyardgrass (Echinochloa crus-galli); assay: Test B preemergence
# Summary of the method: as §1
# [16] = system: cocklebur (Xanthium strumarium); assay: Test B preemergence
# Summary of the method: as §1
# [17] = system: corn (Zea mays); assay: Test B preemergence
# Summary of the method: as §1
# [18] = system: crabgrass (Digitaria sanguinalis); assay: Test B preemergence
# Summary of the method: as §1
# [19] = system: giant foxtail (Setaria faberii); assay: Test B preemergence
# Summary of the method: as §1
# [20] = system: lambsquarters (Chenopodium album); assay: Test B preemergence
# Summary of the method: as §1
# [21] = system: morning glory (Ipomoea hederacea); assay: Test B preemergence
# Summary of the method: as §1
# [22] = system: pigweed (Amaranthus retroflexus); assay: Test B preemergence
# Summary of the method: as §1
# [23] = system: rice (Oryza saliva); assay: Test B preemergence
# Summary of the method: as §1
# [24] = system: velvetleaf (Abutilon theophrasti); assay: Test B preemergence
# Summary of the method: as §1
# [25] = system: barnyardgrass (Echinochloa crus-galli); assay: Test C flooded paddy test; conditions: for Barnyardgrass plant response rating: Flooded Paddy, Rate 500 g/ha, scale 0 to 100, 0 no effect, 100 complete control; for Plant response rating, Barnyardgrass / Plant response rating (scale 0 to 100), Barnyardgrass: flooded paddy test; for Plant response rating, Barnyardgrass: scale 0 to 100 (0 no effect, 100 complete control); for Plant response rating (scale 0 to 100), Barnyardgrass: Rate 62 g/ha, visually evaluated after 12 to 14 days, 0 = no effect, 100 = complete control
# Summary of the method: (§2)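 Each species was cultivated to 2 leaves in flooded paddy pots, then treated. After a greenhouse period of 12–14 days, the plants were scored visually relative to controls from 0 (no effect) to 100 (complete control).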
# [26] = system: duck salad (Heteranthera limosa); assay: Test C flooded paddy test; conditions: for Ducksalad plant response rating: Flooded Paddy, Rate 500 g/ha, scale 0 to 100, 0 no effect, 100 complete control; for Plant response rating, Ducksalad / Plant response rating (scale 0 to 100), Ducksalad: flooded paddy test; for Plant response rating, Ducksalad: scale 0 to 100 (0 no effect, 100 complete control); for Plant response rating (scale 0 to 100), Ducksalad: Rate 62 g/ha, visually evaluated after 12 to 14 days, 0 = no effect, 100 = complete control
# Summary of the method: as §2
# [27] = system: rice (Oryza saliva); assay: Test C flooded paddy test; conditions: for Rice plant response rating: Flooded Paddy, Rate 500 g/ha, scale 0 to 100, 0 no effect, 100 complete control; for Plant response rating, Rice / Plant response rating (scale 0 to 100), Rice: flooded paddy test; for Plant response rating, Rice: scale 0 to 100 (0 no effect, 100 complete control); for Plant response rating (scale 0 to 100), Rice: Rate 62 g/ha, visually evaluated after 12 to 14 days, 0 = no effect, 100 = complete control
# Summary of the method: as §2
# [28] = system: smallflower flatsedge (Cyperus difformis); assay: Test C flooded paddy test; conditions: for Flatsedge plant response rating: Flooded Paddy, Rate 500 g/ha, scale 0 to 100, 0 no effect, 100 complete control; for Plant response rating, Flatsedge / Plant response rating (scale 0 to 100), Flatsedge: flooded paddy test; for Plant response rating, Flatsedge: scale 0 to 100 (0 no effect, 100 complete control); for Plant response rating (scale 0 to 100), Flatsedge: Rate 62 g/ha, visually evaluated after 12 to 14 days, 0 = no effect, 100 = complete control
# Summary of the method: as §2
# [29] = Rate 125 g/ha, scale 0 to 100, 0 no effect, 100 complete control
# [30] = Rate 500 g/ha, scale 0 to 100, 0 is no effect, 100 is complete control, 13 to 15 days
# [31] = Preemergence, Rate 500 g/ha, scale 0 to 100, 0 no effect, 100 complete control
# [32] = preemergence, Rate 125 g/ha, scale of 0 to 100 where 0 is no effect and 100 is complete control, 13 to 15 days
# [33] = Rate 500 g/ha, scale 0 (no effect) to 100 (complete control), 13 to 15 days
smiles,measurement,setting,value
COc1cc(N2CCC(n3ccc(C(C)(C)C)n3)C2=O)cc2ccccc12 (stereo not drawn) [Compound 136],"Plant response rating, Surinam grass",[1]; [29],0
same,"Plant response rating, Surinam grass",[1]; [30],0
same,"Plant response rating, Barnyardgrass",[2]; [29],0
same,"Plant response rating, Barnyardgrass",[2]; [30],0
same,"Plant response rating, Blackgrass",[3]; [29],0
same,"Plant response rating, Blackgrass",[3]; [30],0
same,"Plant response rating, Cocklebur",[4]; [29],0
same,"Plant response rating, Cocklebur",[4]; [30],0
same,"Plant response rating, Corn",[5]; [29],0
same,"Plant response rating, Corn",[5]; [30],0
same,"Plant response rating, Crabgrass",[6]; [29],0
same,"Plant response rating, Foxtail, Giant",[7]; [29],0
same,"Plant response rating, Lambsquarters",[8]; [29],0
same,"Plant response rating, Morningglory",[9]; [29],0
same,"Plant response rating, Pigweed",[10]; [29],0
same,"Plant response rating, Velvetleaf",[11]; [29],0
same,"Plant response rating, Wheat",[12]; [29],0
same,"Plant response rating, Wild Oat",[13]; [29],0
same,"Plant response rating, Surinam grass",[14]; [31],0
same,"Plant response rating, Surinam grass",[14]; [32],0
same,"Plant response rating, Barnyardgrass",[15]; [31],0
same,"Plant response rating, Barnyardgrass",[15]; [32],0
same,"Plant response rating, Cocklebur",[16]; [31],0
same,"Plant response rating, Cocklebur",[16]; [32],0
same,"Plant response rating, Corn",[17]; [31],0
same,"Plant response rating, Corn",[17]; [32],0
same,"Plant response rating, Crabgrass",[18]; [31],70
same,"Plant response rating, Crabgrass",[18]; [32],0
same,"Plant response rating, Foxtail, Giant",[19]; [31],0
same,"Plant response rating, Foxtail, Giant",[19]; [32],0
same,"Plant response rating, Lambsquarters",[20]; [31],100
same,"Plant response rating, Lambsquarters",[20]; [32],100
same,"Plant response rating, Morningglory",[21]; [31],0
same,"Plant response rating, Morningglory",[21]; [32],0
same,"Plant response rating, Pigweed",[22]; [31],60
same,"Plant response rating, Pigweed",[22]; [32],0
same,"Plant response rating, Rice",[23]; [31],0
same,"Plant response rating, Rice",[23]; [32],0
same,"Plant response rating, Velvetleaf",[24]; [31],0
same,"Plant response rating, Velvetleaf",[24]; [32],0
same,Barnyardgrass plant response rating,[25],0
same,"Plant response rating, Barnyardgrass",[25]; Rate 125 g/ha,0
same,"Plant response rating, Barnyardgrass",[25]; Rate 250 g/ha,0
same,"Plant response rating (scale 0 to 100), Barnyardgrass",[25],0
same,Ducksalad plant response rating,[26],0
same,"Plant response rating, Ducksalad",[26]; Rate 125 g/ha,0
same,"Plant response rating, Ducksalad",[26]; Rate 250 g/ha,0
same,"Plant response rating (scale 0 to 100), Ducksalad",[26],0
same,Rice plant response rating,[27],0
same,"Plant response rating, Rice",[27]; Rate 125 g/ha,0
same,"Plant response rating, Rice",[27]; Rate 250 g/ha,0
same,"Plant response rating (scale 0 to 100), Rice",[27],0
same,Flatsedge plant response rating,[28],0
same,"Plant response rating, Flatsedge",[28]; Rate 125 g/ha,0
same,"Plant response rating, Flatsedge",[28]; Rate 250 g/ha,0
same,"Plant response rating (scale 0 to 100), Flatsedge",[28],0
COc1cc(C)nc(N2CCC(n3ccc(C(C)(C)C)n3)C2=O)n1 (stereo not drawn) [Compound 137],"Plant response rating, Surinam grass",[1]; [29],0
same,"Plant response rating, Surinam grass",[1]; [33],0
same,"Plant response rating, Barnyardgrass",[2]; [29],0
same,"Plant response rating, Barnyardgrass",[2]; [33],0
same,"Plant response rating, Blackgrass",[3]; [29],0
same,"Plant response rating, Blackgrass",[3]; [33],0
same,"Plant response rating, Cocklebur",[4]; [29],0
same,"Plant response rating, Cocklebur",[4]; [33],0
same,"Plant response rating, Corn",[5]; [29],0
same,"Plant response rating, Corn",[5]; [33],0
same,"Plant response rating, Crabgrass",[6]; [29],0
same,"Plant response rating, Crabgrass",[6]; [33],0
same,"Plant response rating, Foxtail, Giant",[7]; [29],0
same,"Plant response rating, Foxtail, Giant",[7]; [33],90
same,"Plant response rating, Lambsquarters",[8]; [29],0
same,"Plant response rating, Lambsquarters",[8]; [33],0
same,"Plant response rating, Morningglory",[9]; [29],0
same,"Plant response rating, Morningglory",[9]; [33],0
same,"Plant response rating, Pigweed",[10]; [29],0
same,"Plant response rating, Pigweed",[10]; [33],0
same,"Plant response rating, Velvetleaf",[11]; [29],0
same,"Plant response rating, Velvetleaf",[11]; [33],0
same,"Plant response rating, Wheat",[12]; [29],0
same,"Plant response rating, Wheat",[12]; [33],0
same,"Plant response rating, Wild Oat",[13]; [29],0
same,"Plant response rating, Wild Oat",[13]; [33],0
same,"Plant response rating, Surinam grass",[14]; [31],50
same,"Plant response rating, Surinam grass",[14]; [32],0
same,"Plant response rating, Barnyardgrass",[15]; [31],40
same,"Plant response rating, Barnyardgrass",[15]; [32],0
same,"Plant response rating, Cocklebur",[16]; [31],80
same,"Plant response rating, Cocklebur",[16]; [32],0
same,"Plant response rating, Corn",[17]; [31],0
same,"Plant response rating, Corn",[17]; [32],0
same,"Plant response rating, Crabgrass",[18]; [31],80
same,"Plant response rating, Crabgrass",[18]; [32],0
same,"Plant response rating, Foxtail, Giant",[19]; [31],0
same,"Plant response rating, Foxtail, Giant",[19]; [32],0
same,"Plant response rating, Lambsquarters",[20]; [31],0
same,"Plant response rating, Lambsquarters",[20]; [32],0
same,"Plant response rating, Morningglory",[21]; [31],0
same,"Plant response rating, Morningglory",[21]; [32],0
same,"Plant response rating, Pigweed",[22]; [31],0
same,"Plant response rating, Pigweed",[22]; [32],0
same,"Plant response rating, Rice",[23]; [31],70
same,"Plant response rating, Rice",[23]; [32],30
same,"Plant response rating, Velvetleaf",[24]; [31],80
same,"Plant response rating, Velvetleaf",[24]; [32],0
same,Barnyardgrass plant response rating,[25],0
same,"Plant response rating, Barnyardgrass",[25]; Rate 125 g/ha,0
same,"Plant response rating, Barnyardgrass",[25]; Rate 250 g/ha,0
same,"Plant response rating (scale 0 to 100), Barnyardgrass",[25],0
same,Ducksalad plant response rating,[26],0
same,"Plant response rating, Ducksalad",[26]; Rate 125 g/ha,0
same,"Plant response rating, Ducksalad",[26]; Rate 250 g/ha,0
same,"Plant response rating (scale 0 to 100), Ducksalad",[26],0
same,Rice plant response rating,[27],0
same,"Plant response rating, Rice",[27]; Rate 125 g/ha,0
same,"Plant response rating, Rice",[27]; Rate 250 g/ha,0
same,"Plant response rating (scale 0 to 100), Rice",[27],0
same,Flatsedge plant response rating,[28],0
same,"Plant response rating, Flatsedge",[28]; Rate 125 g/ha,0
same,"Plant response rating, Flatsedge",[28]; Rate 250 g/ha,0
same,"Plant response rating (scale 0 to 100), Flatsedge",[28],0
